pIC50: −log10 of the molar value. The source made the active and inactive calls. The rule behind the calls is not given here.
Test system: L. donovani-infected THP-1 macrophages, intracellular amastigote imaging
Experiment: intracellular L. donovani amastigote inhibition, imaging, THP-1 host macrophages, host toxicity (AID 1159564)
[1] = measured here: THP-1 host cell toxicity
[2] = measured here: amastigotes per macrophage

SMILES | IC50 | pIC50 [1] | pIC50 [2] | pIC50
Cc1occc1C(=O)Nc1ccccc1C(=O)Nc1nccs1 | > 50 µM (inactive) | < 4.30 | < 4.30 | –
COc1cccc(-c2cc(C(F)(F)F)nc(-n3ccc([N+](=O)[O-])n3)n2)c1 | > 50 µM (inactive) | < 4.30 | < 4.30 | –
O=C(NCCc1ccn(-c2ccccc2)n1)C1CCCCC1 | > 50 µM (inactive) | < 4.30 | < 4.30 | –
CN1C(=O)c2ccccc2Sc2ccc(NC(=O)NCc3ccco3)cc21 | > 50 µM (inactive) | < 4.30 | 4.60 | –
Cc1ccc(Nc2nc(-c3ccccn3)cc(N3CCCC(O)C3)n2)cc1 (centres undefined) | – | 4.60 | 6.30 | 6.10
CCC(=O)Nc1ccc(C(=O)Nc2ccccc2-c2ccccc2)cc1 | – | 4.80 | 4.60 | 4.70
Cc1cnc(Nc2cc(Cc3ccccc3)nc(NC3CCC(O)CC3)n2)s1 (centres undefined) | – | 7.60 | 7.49 | 7.40
CCn1c(-c2nonc2N)nc2c([C@@H](C)O)ncc(O[C@H](CN)c3ccccc3)c21 | – | 5.49 | 5.49 | 5.30
CC(C)CC(=O)Nc1cc(C2CC2)nn1-c1nc2c(c(=O)[nH]1)CCCC2 | – | 5.30 | 5.30 | 5.10
Cc1nnnn1-c1cccc(C(=O)N2CCC[C@@]3(C)c4ncncc4CCC23)c1 (some centres undefined) | > 50 µM (inactive) | < 4.30 | 5.20 | –
COc1cc(C(C)C)c(S(C)(=O)=O)cc1C(=O)N1CCN(c2ccccc2Cl)CC1 | – | 4.80 | 4.89 | 4.80
Cn1nc([N+](=O)[O-])nc1Oc1ccc(C(=O)c2ccccc2)cc1 | > 50 µM (inactive) | < 4.30 | < 4.30 | –
COc1ccc2ncc(F)c(NC(=O)C3(O)CCC(NCc4ccc5c(c4)OCCO5)CC3)c2n1 (centres undefined) | – | 4.70 | 4.80 | 4.49
Cc1c([N+](=O)[O-])c(C(=O)Nc2sc3c(c2C#N)CCC(C)C3)nn1C (centres undefined) | – | < 4.30 | 4.80 | 4.49
O=C(Nc1ccc(C(F)(F)F)cc1)NC1(C(=O)NCc2ccco2)CCCCC1 | > 50 µM (inactive) | 4.49 | < 4.30 | –
Cn1cc(CN2CCN(c3ccc4c(c3)CCN(C(=O)[C@H]3C[C@@H]3c3ccccc3)CC4)CC2)cn1 | – | 5.20 | 6.00 | 4.49
O=S(=O)(c1cccc(CSc2nnc(-c3ccc4c(c3)OCO4)o2)c1)N1CCOCC1 | – | < 4.30 | 6.60 | 6.10
CC(=O)Nc1ccc(-c2ccnc(Nc3cccc(C#N)c3)n2)cc1 | – | 5.00 | 5.00 | 4.80
N#Cc1cnc(Nc2cccc(CCN3CCOCC3)c2)nc1Nc1ccccc1C(N)=O | – | 6.10 | 6.00 | 5.80
Cc1ccc(NC(C)C(=O)Nc2ccc(C#N)cc2)cc1S(=O)(=O)N1CCCCC1 (centres undefined) | – | 4.30 | 5.30 | 5.00
C=CCn1nc([N+](=O)[O-])nc1Oc1ccc(Cl)cc1Cl | > 50 µM (inactive) | 4.40 | 4.40 | –
COCCn1cnc2cc(NC(=O)C3CCCCC3)cc(C(=O)N3CCc4sccc4C3)c21 | > 50 µM (inactive) | < 4.30 | < 4.30 | –
CC(C)(C)C(=O)NCCc1csc(-c2ccc(F)cc2)n1 | > 50 µM (inactive) | < 4.30 | < 4.30 | –

SMILES | IC50 | pIC50 [1] | pIC50 [2] | pIC50
CCN(CC)c1ncc(C(=O)c2ccc([N+](=O)[O-])o2)s1 | – | 5.20 | 5.00 | 5.00
CCCN1CCN(Cc2ccc(S(=O)(=O)Nc3cccc(C)c3)cc2)CC1 | > 50 µM (inactive) | < 4.30 | < 4.30 | –
CCCc1cc(N)nc(-c2cc(CCC)cc(N)n2)c1 | – | 4.70 | 5.80 | 5.60
Oc1cccnc1-c1n[nH]c(Cc2ccccc2)n1 | – | 4.80 | 5.70 | 5.49
CCOC(=O)c1cn[nH]c1S(=O)(=O)N1CCC1c1ccccc1 (centres undefined) | > 50 µM (inactive) | < 4.30 | < 4.30 | –
O=C(NCCNc1noc(-c2ccc([N+](=O)[O-])cc2)n1)c1ccc(Cl)cc1 | > 50 µM (inactive) | 4.80 | < 4.30 | –
Cc1ccc(CNC2CCN(C[C@@H]3Cn4c(=O)ccc5ccc(=O)n3c54)CC2)cc1F | > 50 µM (inactive) | < 4.30 | < 4.30 | –
CC(C)(C)C(=O)Nc1cc(C2CC2)nn1-c1nc2c(c(=O)[nH]1)CCCC2 | – | 5.10 | 5.70 | 5.30
Cc1nn2c(NCCCO)c3c(nc2c1-c1cccs1)CCC3 | > 50 µM (inactive) | < 4.30 | < 4.30 | –
CCCn1c(NC(=O)Cc2ccc(Cl)cc2)nc2ccccc21 | – | < 4.30 | 5.49 | 5.30
CC(C)N(C(=O)CN1C(=O)C(N)C(=O)N(c2ccccc2)c2ccccc21)c1ccccc1 (centres undefined) | > 50 µM (inactive) | < 4.30 | < 4.30 | –
Clc1ccc(Sc2cnccc2N2CCOCC2)cc1 | > 50 µM (inactive) | < 4.30 | 5.00 | –
CCc1cc(C(=O)Nc2nccn2-c2ccccc2)cs1 | – | 4.49 | 5.30 | 4.89
Cc1nn(-c2nc(N)nc(-c3ccccn3)n2)c(N)c1-c1ccccc1 | – | 4.70 | 5.70 | 5.49
COc1ccc(C2CC(c3ccc(NS(C)(=O)=O)cc3)=NN2C(=O)c2cccs2)cc1OC (centres undefined) | – | < 4.30 | 5.40 | 5.30
COc1ccccc1CNc1cc(C2CC2)nc(-c2nccn2C)n1 | – | 4.80 | 6.40 | 6.30
COc1ccc2nccc(NC(=O)C3(OC)CCN(CC(O)c4ccc5c(c4)OCCO5)CC3)c2n1 (centres undefined) | – | 4.60 | 5.20 | 4.70
CN(C)S(=O)(=O)c1cccc(C(=O)Nc2nc(-c3ccccn3)cs2)c1 | – | 5.10 | 5.60 | 5.20
COc1ccc(OC)c2c(=O)c(Cc3ccccc3)c(C)[nH]c12 | – | < 4.30 | 5.60 | 5.40
N#Cc1nc(C=Cc2ccccc2)oc1NCc1cccnc1 | – | 4.49 | 4.49 | 4.40
O=C1OCc2ccc(Nc3nccc(-c4cnn5ncccc45)n3)cc21 | – | 8.10 | 7.89 | 7.80
Cc1nn(C2CCS(=O)(=O)C2)c(C)c1CN(C)C(=O)C=Cc1sc2ccccc2c1Cl (centres undefined) | – | 4.70 | 4.89 | 4.40
O=C(Nc1cccc(Cl)c1)N1CCCCC1c1cccnc1 (centres undefined) | > 50 µM (inactive) | < 4.30 | < 4.30 | –

SMILES | IC50 | pIC50 [1] | pIC50 [2] | pIC50
COc1ccc(S(=O)(=O)Nc2ccc(CN3CCN(C(=O)c4cccc(C#N)c4)CC3)cc2)cc1 | > 50 µM (inactive) | < 4.30 | < 4.30 | –
CN(Cc1nc2ccc(C(=O)NCC3CCCCC3)cc2[nH]1)C1CCCc2cccnc21 (centres undefined) | – | 5.20 | 6.40 | 6.30
COc1cc(OC)cc(C(NS(=O)(=O)c2ccc(Cl)c(C(F)(F)F)c2)c2nccn2C)c1 (centres undefined) | – | < 4.30 | 5.30 | 5.20
Cc1c(CNC(=O)c2ccc(Cn3cc(Cl)c([N+](=O)[O-])n3)cc2)cnn1C | > 50 µM (inactive) | < 4.30 | < 4.30 | –
Cc1[nH]n2c(=O)c3c(nc2c1-c1ccc(Br)cc1)CCCC3 | > 50 µM (inactive) | < 4.30 | 4.40 | –
CCN(CC)S(=O)(=O)c1ccc(OC)c(NC(=O)c2ccc([N+](=O)[O-])s2)c1 | > 50 µM (inactive) | < 4.30 | < 4.30 | –
Cc1cc(C#N)c([N+](=O)[O-])cc1Br | – | 4.60 | 4.49 | 4.40
O=C(COc1nn(-c2ccccc2)c2ncccc12)NCc1ccccc1 | – | < 4.30 | 7.10 | 6.49
CN(C)CCN(C)Cc1ccc(F)cc1NS(=O)(=O)c1ccc(Cl)c(Cl)c1 | – | 4.49 | 5.60 | 5.10
O=C(NCC(c1cccnc1)N1CCc2ccccc2C1)C(=O)Nc1cccc(Cl)c1 (centres undefined) | > 50 µM (inactive) | < 4.30 | < 4.30 | –
CCOc1cc(NCCCN2CCN(C)CC2)c2ncccc2c1 | – | 5.20 | 6.10 | 5.89
CCN(Cc1cccs1)C(=O)CSc1nnc(-c2ccc3c(c2)OCO3)o1 | – | < 4.30 | 5.70 | 5.70
CN(Cc1nnnn1C1CCN(Cc2ccc(-n3ccnc3)cc2)CC1)c1ccc(F)cc1F | > 50 µM (inactive) | < 4.30 | 4.80 | –
CC(C)n1c(-c2nonc2N)nc2cccc(OCCN3CCCC3)c21 | – | 4.49 | 4.70 | 4.49
O=C(Nc1ccc(C(F)(F)F)cc1)Nc1cccc([N+](=O)[O-])c1 | – | 5.20 | 5.70 | 5.60
CCC(=O)N1N=C(c2ccc3c(c2)CCCC3)Sc2c1ncn2C(=O)CC | – | < 4.30 | 5.60 | 5.49
Cc1ccc(S(=O)(=O)Nc2ccc(CN3CCN(C(=O)c4cccc(C#N)c4)CC3)cc2)cc1 | > 50 µM (inactive) | < 4.30 | 4.60 | –
Cc1ccc2nc(N(Cc3cccnc3)C(=O)CCc3ccccc3)sc2c1 | > 50 µM (inactive) | < 4.30 | < 4.30 | –
COc1ccc(C(=O)Nc2ccc(NC(=O)CO)cc2)cc1 | > 50 µM (inactive) | 4.70 | < 4.30 | –
FC(F)(F)c1cc(C2CCCN(Cc3c[nH]c4ccccc34)C2)nc2ncnn12 (centres undefined) | > 50 µM (inactive) | 4.80 | < 4.30 | –
O=C(NCCc1cccnc1)c1ccc(-c2ccccc2F)o1 | > 50 µM (inactive) | < 4.30 | < 4.30 | –
COc1ccc(CN2CCCCC2c2nc(-c3cccnc3)no2)cc1 (centres undefined) | > 50 µM (inactive) | < 4.30 | < 4.30 | –

From PubChem BioAssay AID1159564 (GlaxoSmithKline (GSK), 2015)
